Experiment [1] relates to HCT116. Put plainly: AC50 cell viability (CellTiter-Glo); higher = less potent. As to conditions: 48 h.
In experiment [2] the test system is HCT116. Put plainly: efficacy (fitted maximal change in viability relative to DMSO control); higher = less cytotoxic (negative = loss of viability). As to conditions: 48 h.

SMILES strings stand for the structures. Structures can show the parent of a compound that is named as a salt.

Drawing on the supplement of paper PMC10290057, this text covers AC50 cell viability and efficacy for 36 compounds.
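Throughout, for AC50 cell viability (CellTiter-Glo): HCT116 colorectal carcinoma cells screened at five concentrations per compound, luminescent viability scaled between DMSO wells and empty wells on each plate, curves fitted per compound.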
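Throughout, for efficacy (fitted maximal change in viability relative to DMSO control): Luminescence-based viability readout, five doses per compound, normalized against on-plate DMSO and empty-well controls, followed by dose-response curve fitting for every drug.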

The compound `Cc1ccc(Nc2ncc3c(n2)N(C)C(=O)N(c2cc(NC(=O)c4cccc(C(F)(F)F)c4)ccc2C)C3)cn1` [GNF-7] yielded an AC50 cell viability in experiment [1] of 0.0332 µM. Further, in experiment [2], the efficacy was -69.3%.

For `Cc1ccc(NC(=O)Nc2cc(C(F)(F)F)ccc2F)cc1Nc1ccc2c(c1)NC(=O)/C2=C\c1ccc[nH]1` [GNF-5837], in experiment [1], the AC50 cell viability was 14.8 µM. For the same compound, the efficacy in experiment [2] is -97.5%.

For the compound `NC1=NC(=C(C#N)C(=N1)N)N[C@@H](C2CC2)\C3=N\C4=C(C(=CC=C4F)Cl)C(=O)N3C5=CC=CN=C5` [GS-9901], the AC50 cell viability in experiment [1] was 18.6 µM. In addition, in experiment [2], the efficacy is -71%.

On to `O=C/1NC(=O)C(=C1C2=CN=C3C=CC=C[N]23)/C4=C[N]5CCN(CC6=C5C4=CC=C6)C(=O)N7CCOCC7` [GSK3 Inhibitor], for which the AC50 cell viability in experiment [1] was found to be 9.34 µM. In addition, the efficacy in experiment [2] was -85.7%.

`CC\1=C(C(\N=C(/N1)C2=CC(=NC=C2)Cl)C3=C(F)C=C(Cl)C=C3)/C(=O)NC4=C(F)C=C5[NH]N=CC5=C4` (configuration not stated) [GSK-25] returned an AC50 cell viability in experiment [1] of 29.5 µM. Besides, the efficacy in experiment [2] is -97.8%.

`CCCC\1=C(/CNC(=O)C2=CC(=CC3=C2C=N[N]3C(C)C)C4=CC(=NC=C4)N5CCN(C)CC5)C(=O)NC(=C1)\C` [GSK-343] showed an AC50 cell viability in experiment [1] of 23.5 µM. The efficacy in experiment [2] was -101%.

`COc1cc(C(=O)N2CC[C@@H](O)[C@@H](N)C2)cc2nc(-c3cc4ccccc4n3CC3CC3)n(C)c12` [GSK-484] gave an AC50 cell viability in experiment [1] of 23.5 µM. The efficacy in experiment [2] was -94.1%.

With `Cc1cc(C)c(C/N=C(\O)c2cc(-c3ccc(N4CCN(C)CC4)nc3)cc3c2c(C)cn3C(C)C)c(O)n1` [GSK-503], the AC50 cell viability in experiment [1] stood at 23.5 µM. For the same compound, in experiment [2], the efficacy was -103%.

In experiment [1], `O=C1NC(=O)/C(=C/c2ccc3nccc(-c4ccncc4)c3c2)S1` [GSK-615] came in with an AC50 cell viability of 0.934 µM. For the same compound, the efficacy in experiment [2] was -82.3%.

As for `CC(C)(C)OC(=O)CN(Cc1ccc(Cl)cc1)Cc1ccc([N+](=O)[O-])s1` [GSK-4112], the AC50 cell viability in experiment [1] is 20.9 µM. For the same compound, the efficacy in experiment [2] was -40.6%.

On to `COc1ccccc1C(=O)Nc1cc2c(cc1N1CCNC[C@H]1C)n(C)c(=O)n2C` [GSK-6853], for which the AC50 cell viability in experiment [1] was determined as 16.6 µM. In addition, the efficacy in experiment [2] is -63.8%.

On to `CCOC(=O)CCNc1cc(N2CCc3ccccc3CC2)nc(-c2ccccn2)n1` [GSK-J4], for which the AC50 cell viability in experiment [1] was found to be 2.95 µM. In addition, the efficacy in experiment [2] was -90.6%.

`COc1ccc(COc2ccc(Cc3cnc(N)nc3N)cc2OC)cc1` [GW-2580] gave an AC50 cell viability in experiment [1] of 14.8 µM. Moreover, in experiment [2], the efficacy was -96.7%.

Turning to `Cc1ccc(C(=O)Nc2ccc(CN3CCN(C)CC3)c(C(F)(F)F)c2)cc1C#Cc1cnc2[nH]ncc2c1` [GZD-824], the AC50 cell viability in experiment [1] is 0.934 µM. Moreover, the efficacy in experiment [2] was -121%.

For `C[C@]\12CC[C@H](O)CC1=C/CC3C2CC[C@@]\4(C)C3C\C=C4[N]5C=NC6=C5C=CC=C6` (some centres not stated) [Galeterone], in experiment [1], the AC50 cell viability worked out at 5.9 µM. Moreover, the efficacy in experiment [2] was -43.8%.

In experiment [1], `Cc1cc(Nc2cc(CN3CCOCC3)c3nc(C)c(Cc4ccc(Cl)cc4F)n3n2)[nH]n1` [Gandotinib] registered an AC50 cell viability of 5.9 µM. Moreover, the efficacy in experiment [2] was -110%.

`CC(C)C1=C(O)C=C(O)C(=C1)C/2=N/NC(=O)N2C3=CC4=C(C=C3)[N](C)C=C4` [Ganetespib (STA-9090)] showed an AC50 cell viability in experiment [1] of 0.0742 µM. For the same compound, the efficacy in experiment [2] is -62.3%.

In experiment [1], `CCNCc1nc2c(N)nc3ccccc3c2n1CC(C)(C)O` [Gardiquimod] registered an AC50 cell viability of 16.6 µM. In experiment [2], the efficacy was -62%.

`CN(C)C1CCN(C(=O)c2ccc(NC(=O)Nc3ccc(-c4nc(N5CCOCC5)nc(N5CCOCC5)n4)cc3)cc2)CC1` [Gedatolisib] registered an AC50 cell viability in experiment [1] of 0.148 µM. Moreover, the efficacy in experiment [2] is -69.6%.

`NC/1=N/C(=O)N(/C=C1)[C@@H]2O[C@H](CO)[C@@H](O)C2(F)F` [Gemcitabine]: in experiment [1], the AC50 cell viability turned out to be 0.0263 µM. The efficacy in experiment [2] is -71.9%.

In experiment [1], `CCc1nc(C(N)=O)c(Nc2ccc(N3CCC(N4CCN(C)CC4)CC3)c(OC)c2)nc1NC1CCOCC1` [Gilteritinib] displayed an AC50 cell viability of 1.66 µM. Also, in experiment [2], the efficacy was -65.1%.

For the compound `CCN(CC)Cc1ccc2cc(COC(=O)Nc3ccc(C(=O)NO)cc3)ccc2c1` [Givinostat hydrochloride], the AC50 cell viability in experiment [1] was 0.263 µM. In addition, in experiment [2], the efficacy is -88.8%.

In experiment [1], `COCCNCc1ccc(-c2cc3nccc(Oc4ccc(NC(=S)NC(=O)Cc5ccc(F)cc5)cc4F)c3s2)nc1` [Glesatinib] gave an AC50 cell viability of 6.61 µM. Moreover, in experiment [2], the efficacy was -80.1%.

Consider `Cc1cncc2cccc([S+](=O)([O-])N3CCCN(C(=O)CN)C[C@@H]3C)c12` [Glycyl-H-1152], for which the AC50 cell viability in experiment [1] was 5.9 µM. The efficacy in experiment [2] is -35.8%.

In the case of `Cn1c2ccccc2c2c3c(c4c5ccccc5n(CCC#N)c4c21)CNC3=O` [Go-6976], the AC50 cell viability in experiment [1] was 18.6 µM. For the same compound, the efficacy in experiment [2] is -63%.

In experiment [1], `COC1=CC=C2[N](CCCN(C)C)C=C(C2=C1)C/3=C(/C(=O)NC3=O)C4=C[NH]C5=C4C=CC=C5` [Go-6983] yielded an AC50 cell viability of 10.5 µM. Besides, the efficacy in experiment [2] was -111%.

`CN1CCN(C2CCN(C(=O)Nc3cc(Oc4ccc(NC(=O)C5(C(=O)Nc6ccc(F)cc6)CC5)c(F)c4)ccn3)CC2)CC1` [Golvatinib] came in with an AC50 cell viability in experiment [1] of 14.8 µM. In addition, in experiment [2], the efficacy is -93.6%.

Take `O=[S+]([O-])(NCCNC/C=C/c1ccc(Br)cc1)c1cccc2cnccc12` [H-89]: in experiment [1], the AC50 cell viability was 18.6 µM. Besides, the efficacy in experiment [2] was -88.2%.

Turning to `O=C1S/C(=C\c2ccc(OCc3cccc(B(O)O)c3)cc2)C(=O)N1Cc1ccc(F)cc1` [HA-130], the AC50 cell viability in experiment [1] is 18.6 µM. The efficacy in experiment [2] is -41.3%.

For the compound `ONC(=O)C1=CC=C(C=C1)C/2=N/C3=CC=CC=C3OC4=C2C=CC=C4` [HDACi-01], the AC50 cell viability in experiment [1] was 2.95 µM. Besides, the efficacy in experiment [2] was -85.9%.

Consider `O=C(NO)c1cnc(N2C[C@H]3C[C@@H]2CN3c2cc(C(F)(F)F)ccn2)nc1` [HDACi-02], for which the AC50 cell viability in experiment [1] is 1.48 µM. Also, the efficacy in experiment [2] is -86.6%.

As for `CCN1CCN(Cc2ccc(NC(=O)c3ccc(C)c(/C=C/c4cnc5[nH]ccc5c4OC)c3)cc2C(F)(F)F)CC1` [HG-6-64-1], the AC50 cell viability in experiment [1] turned out to be 2.95 µM. In addition, the efficacy in experiment [2] is -96.2%.

In turn, `COCCOC(=O)C/1=C(C)/NC/2=C(C1C3=CC=CC(=C3)O)/C(=O)CC(C2)C4=C(OC)C=CC=C4` (configuration not stated) [HPI-1] yielded an AC50 cell viability in experiment [1] of 14.8 µM. Besides, the efficacy in experiment [2] is -73.6%.

With `COc1cccc(-c2cc(F)ccc2C2Cc3nc(N)nc(C)c3C(=O)N2)n1` (configuration not stated) [HSP-990], in experiment [1], the AC50 cell viability turned out to be 0.0525 µM. For the same compound, the efficacy in experiment [2] was -64.3%.

With `CCCCN(CCCC)CCC(O)c1cc2c(Cl)cc(Cl)cc2c2cc(C(F)(F)F)ccc12.Cl` (configuration not stated) [Halofantrine], in experiment [1], the AC50 cell viability worked out at 20.9 µM. Also, in experiment [2], the efficacy was -66.6%.

As for `CC[S+](=O)([O-])Nc1ccc2c(c1)/C(=C(/Nc1ccc(CN3CCCCC3)cc1)c1ccccc1)C(=O)N2` [Hesperadin], the AC50 cell viability in experiment [1] turned out to be 0.235 µM. In experiment [2], the efficacy is -90.4%.
